Source: US11572540B2, “Method for inducing oligodendrocyte precursor cells from OCT4-induced human somatic cells through direct reprogramming” (Stemlab Inc., priority 2015, dated 2023)

System: Oct4-introduced Sox10::eGFP fibroblasts
Assay: FACS analysis of Sox10::eGFP reporter expression after low molecular weight substance treatment
Type: cell-based, human
Details: 10 μM forskolin added to ATVP medium
Excerpt: The inventors have established conditions capable of inducing neural stem cells from mouse cells only with a low molecular weight substance without gene introduction (KR 10-1357402). Accordingly, to establish new conditions capable of inducing human somatic cells into OPCs on the basis of the low molecular weight substance that had been established in the previous study, a low molecular weight substance was selected using a Sox10 reporter system (Sox10::eGFP), which is a gene known to be important in development of oligodendrocytes (FIG. 1). When Oct4 gene-introduced cells were cultured in a reprogramming medium (RM: DMEM with high Glucose+5% knock out serum replacement (KSR)+1% penicillin/streptomycin+1% non-essential amino acids+20 ng/ml basic FGF (bFGF)+20 ng/ml human recombinant platelet derived growth factor (PDGF)+50 μg/ml ascorbic acid), one week after induction, it was confirmed that a cell length was shorter and a cell size was smaller through mesenchymal to epithelial transition (MET), thereby forming an epithelial-like colony. […]

With `C=C[C@@]1(C)CC(=O)[C@]2(O)[C@@]3(C)[C@@H](O)CCC(C)(C)[C@@H]3[C@H](O)[C@H](OC(C)=O)[C@@]2(C)O1` [forskolin] the “Sox10::eGFP expression (GFP+ distribution, FACS)” value was 3.31%.
